A short description of data set [1]: Cytotoxicity against HEK293T cells assessed as inhibition of cell growth incubated for 72 hrs by CCK-8 assay. The format is toxicity, cell-based, HEK-293T. The conditions noted are these: human.
Data set [2] concerns NCI-H358. The experiment in a line: Antiproliferative activity against human NCI-H358 cells expressing KRAS G12C mutant assessed as inhibition of cell growth incubated for 72 hrs by CCK-8 assay. The format is functional, cell-based. The note with it: NCI-H358, 72 h.
For the next data set, the system named is ASPC1. The experiment in a line: Antiproliferative activity against human ASPC1 cells expressing KRAS G12D mutant assessed as inhibition of cell growth incubated for 72 hrs by CCK-8 assay. The conditions noted are these: ASPC1, 72 h. The format is functional, cell-based.
Data set [3] has as its system MIA PaCa-2. The experiment in a line: Antiproliferative activity against human MIA PaCa-2 cells expressing KRAS G12C mutant assessed as inhibition of cell growth incubated for 72 hrs by CCK-8 assay. The note with it: MIA PaCa-2, 72 h. The format is functional, cell-based. In general terms: Tetrazolium assays rely on reduction of a dye to a coloured formazan, in cell work by metabolically active cells.

Another data set relates to HepG2. Kind of data set: Antiproliferative activity against human HepG2 cells expressing KRAS assessed as inhibition of cell growth incubated for 72 hrs by CCK-8 assay. Type of data set: functional, cell-based. The note with it: HepG2, 72 h.
The subject of data set [4] is MIA PaCa-2. Kind of data set: Antiproliferative activity against human MIA PaCa-2 cells expressing KRAS G12C mutant assessed as relative cell viability at 50 nM incubated for 72 hrs by CCK-8 assay. The format is functional. The note with it: read-out: Activity.
The subject of data set [5] is Calu-1. The experiment in a line: Antiproliferative activity against human Calu-1 cells expressing KRAS G12C mutant assessed as relative cell viability at 50 nM incubated for 72 hrs by CCK-8 assay. Type of data set: functional. The note with it: read-out: Activity.
Data set [6] concerns NCI-H23. Kind of data set: Antiproliferative activity against human NCI-H23 cells expressing KRAS G12C mutant assessed as relative cell viability at 50 nM incubated for 72 hrs by CCK-8 assay. The note with it: read-out: Activity. The format is functional.
Data set [7] concerns SW837. Kind of data set: Antiproliferative activity against human SW837 cells expressing KRAS G12C mutant assessed as relative cell viability at 50 nM incubated for 72 hrs by CCK-8 assay. The format is functional. The conditions noted are these: read-out: Activity.
The test system of data set [8] is NCI-H358. Kind of data set: Antiproliferative activity against human NCI-H358 cells expressing KRAS G12C mutant assessed as relative cell viability at 50 nM incubated for 72 hrs by CCK-8 assay. Type of data set: functional. The note with it: read-out: Activity.
For data set [9], the system named is von Hippel-Lindau disease tumor suppressor/GTPase KRas (Homo sapiens), P01116+P40337 [G12C]. Kind of data set: PROTAC activity at VHL/KRAS G12C mutant in human NCI-H358 cells assessed as induction of protein degradation at 10 to 1000 nM incubated for 48 hrs by Western blotting analysis. The format is cell-based. The note with it: dose 10-1000 nM.
The test system is the same in data set [10]. Kind of data set: PROTAC activity at VHL/KRAS G12C mutant in human MIA PaCa-2 cells assessed as induction of protein degradation at 10 to 1000 nM incubated for 48 hrs by Western blotting analysis. The note with it: dose 10-1000 nM. Type of data set: cell-based.
The subject of data set [11] is MIA PaCa-2. Kind of data set: Antiproliferative activity against human MIA PaCa-2 cells expressing KRAS G12C mutant assessed as relative cell viability at 100 nM incubated for 72 hrs by CCK-8 assay. Type of data set: functional. The conditions noted are these: read-out: Activity.
In data set [12] the test system is SW837. Kind of data set: Antiproliferative activity against human SW837 cells expressing KRAS G12C mutant assessed as relative cell viability at 100 nM incubated for 72 hrs by CCK-8 assay. The format is functional. The note with it: read-out: Activity.
Data set [13] has as its system NCI-H23. Kind of data set: Antiproliferative activity against human NCI-H23 cells expressing KRAS G12C mutant assessed as relative cell viability at 100 nM incubated for 72 hrs by CCK-8 assay. The format is functional. The note with it: read-out: Activity.
The test system of data set [14] is Calu-1. The experiment in a line: Antiproliferative activity against human Calu-1 cells expressing KRAS G12C mutant assessed as relative cell viability at 100 nM incubated for 72 hrs by CCK-8 assay. The note with it: read-out: Activity. The format is functional.
Data set [15] deals with NCI-H358. Kind of data set: Antiproliferative activity against human NCI-H358 cells expressing KRAS G12C mutant assessed as relative cell viability at 100 nM incubated for 72 hrs by CCK-8 assay. The format is functional. The note with it: read-out: Activity.

SMILES strings stand for the structures. Active and inactive are the calls of the source. No cut-off for these calls is given here.

For orientation: IC50 means the concentration that gives 50% inhibition.

Regarding `C=CC(=O)N1CCN(c2nc(=O)n(-c3c(C)ccnc3C(C)C)c3nc(-c4c(F)cccc4OCc4cn(CCCCCC(=O)N[C@H](C(=O)N5C[C@H](O)C[C@H]5C(=O)NCc5ccc(-c6scnc6C)cc5)C(C)(C)C)nn4)c(F)cc23)[C@@H](C)C1`, in data set [1], the IC50 at 72 h was over 10000 nM. Moreover, the IC50 is 289 nM in the data set on NCI-H358 [2], over 10000 nM in the data set with ASPC1, 481 nM in the data set with MIA PaCa-2 [3] and over 10000 nM in the data set on HepG2.

Consider `Cn1cnc2c(F)c(Nc3ccc(Br)cc3Cl)c(C(=O)NOCCO)cc21` [SELUMETINIB], for which the viability at 0.05 µM came to 0.71% with MIA PaCa-2 [4]; 0.82% with Calu-1 [5]; 0.77% in the data set with NCI-H23 [6]; 0.73% in the data set on SW837 [7]; 0.86% with NCI-H358 [8].

On to `C=CC(=O)N1CCN(c2nc(=O)n(-c3c(C)ccnc3C(C)C)c3nc(-c4c(F)cccc4OCCOCC(=O)Nc4cccc5c4CN(C4CCC(=O)NC4=O)C5=O)c(F)cc23)[C@@H](C)C1` (some centres undefined), for which the IC50 at 72 h in [1] was over 10000 nM. Further, the half-maximal inhibitory concentration (IC50) was 631 nM with NCI-H358 [2], over 10000 nM in the data set on ASPC1, 434 nM in the data set with MIA PaCa-2 [3] and over 10000 nM with HepG2.

With `C=CC(=O)N1CCN(c2nc(=O)n(-c3c(C)ccnc3C(C)C)c3nc(-c4c(F)cccc4OCc4cn(CCCCC(=O)N[C@H](C(=O)N5C[C@H](O)C[C@H]5C(=O)NCc5ccc(-c6scnc6C)cc5)C(C)(C)C)nn4)c(F)cc23)[C@@H](C)C1`, in data set [1], the IC50 at 72 h is over 10000 nM. For the same compound, the IC50 is 463 nM in the data set with NCI-H358 [2], over 10000 nM in the data set with ASPC1, 660 nM in the data set on MIA PaCa-2 [3] and over 10000 nM in the data set on HepG2.

Turning to `Cn1c(=O)n(-c2ccc(C(C)(C)C#N)cc2)c2c3cc(-c4cnc5ccccc5c4)ccc3ncc21` [DACTOLISIB], the viability at 0.05 µM was 0.7% with MIA PaCa-2 [4]; 0.88% with Calu-1 [5]; 0.79% with NCI-H23 [6]; 0.82% with SW837 [7]; 0.77% in the data set with NCI-H358 [8].

Take `C=CC(=O)N1CCN(c2nc(=O)n(-c3c(C)ccnc3C(C)C)c3nc(-c4c(F)cccc4OCCN4CCN(CCCC(=O)N[C@H](C(=O)N5C[C@H](O)C[C@H]5C(=O)NCc5ccc(-c6scnc6C)cc5)C(C)(C)C)CC4)c(F)cc23)[C@@H](C)C1`: the IC50 at 72 h in data set [1] is over 10000 nM. Besides, the IC50 in the data set with NCI-H358 [2] is 233 nM; in the data set on ASPC1, over 10000 nM; in the data set with MIA PaCa-2 [3] it was 337 nM; in the data set with HepG2 it was over 10000 nM.

`C=CC(=O)N1CCN(c2nc(=O)n(-c3c(C)ccnc3C(C)C)c3nc(-c4c(F)cccc4OCc4cn(CCCC(=O)N[C@H](C(=O)N5C[C@H](O)C[C@H]5C(=O)NCc5ccc(-c6scnc6C)cc5)C(C)(C)C)nn4)c(F)cc23)[C@@H](C)C1`: the IC50 at 72 h in [1] is over 10000 nM. Besides, the IC50 in the data set on NCI-H358 [2] is 368 nM; in the data set with ASPC1 it was over 10000 nM; in the data set with MIA PaCa-2 [3], 491 nM; in the data set with HepG2 it was over 10000 nM.

For the compound `C=CC(=O)N1CCN(c2nc(=O)n(-c3c(C)ccnc3C(C)C)c3nc(-c4c(F)cccc4OCC4CCN(CCCC(=O)N[C@H](C(=O)N5CC(O)C[C@H]5C(=O)NCc5ccc(-c6scnc6C)cc5)C(C)(C)C)CC4)c(F)cc23)[C@@H](C)C1` (some centres undefined), the IC50 in the data set on NCI-H358 [2] was 588 nM; with MIA PaCa-2 [3], 278 nM. For the same compound, the result in [9] and in data set [10] was inactive.

In the case of `Cc1ccc(NC(=O)c2ccnc(C(F)(F)F)c2)cc1-c1cc(OCCO)nc(N2CCOCC2)c1` [NAPORAFENIB], the viability at 0.1 µM in the data set on MIA PaCa-2 [11] amounted to 0.79%; in the data set with SW837 [12], 0.85%; in the data set on NCI-H23 [13], 0.82%; in the data set with Calu-1 [14], 0.9%; in the data set with NCI-H358 [15], 0.81%.

For the compound `C=CC(=O)N1CCN(c2nc(=O)n(-c3c(C)ccnc3C(C)C)c3nc(-c4c(F)cccc4OCc4cn(CCC(=O)N[C@H](C(=O)N5C[C@H](O)C[C@H]5C(=O)NCc5ccc(-c6scnc6C)cc5)C(C)(C)C)nn4)c(F)cc23)[C@@H](C)C1`, in data set [1], the IC50 at 72 h is over 10000 nM. In addition, the IC50 in the data set with NCI-H358 [2] was 222 nM; with ASPC1 it was over 10000 nM; in the data set with MIA PaCa-2 [3], 200 nM; in the data set on HepG2, over 10000 nM.

Regarding `C=CC(=O)N1CCN(c2nc(=O)n(-c3c(C)ccnc3C(C)C)c3nc(-c4c(F)cccc4OCc4cn(CC(=O)N[C@H](C(=O)N5C[C@H](O)C[C@H]5C(=O)NCc5ccc(-c6scnc6C)cc5)C(C)(C)C)nn4)c(F)cc23)[C@@H](C)C1`, the IC50 at 72 h in data set [1] is over 10000 nM. Further, the IC50 with NCI-H358 [2] was 562 nM; with ASPC1, over 10000 nM; in the data set on MIA PaCa-2 [3] it was 529 nM; with HepG2 it was over 10000 nM.

Regarding `CCN1CCN(c2ccc(Nc3cc(N(C)C(=O)Nc4c(Cl)c(OC)cc(OC)c4Cl)ncn3)cc2)CC1` [INFIGRATINIB], the viability at 0.1 µM with MIA PaCa-2 [11] came to 0.84%; with SW837 [12] it was 0.85%; in the data set with NCI-H23 [13] it was 0.89%; with Calu-1 [14] it was 0.86%; with NCI-H358 [15], 0.88%.

Consider `C=CC(=O)N1CCN(c2nc(=O)n(-c3c(C)ccnc3C(C)C)c3nc(-c4c(F)cccc4OCCOCCOCC(=O)Nc4cccc5c4CN(C4CCC(=O)NC4=O)C5=O)c(F)cc23)[C@@H](C)C1` (some centres undefined), for which the IC50 at 72 h in data set [1] is over 10000 nM. Also, the IC50 is 765 nM with NCI-H358 [2], over 10000 nM in the data set on ASPC1, 690 nM with MIA PaCa-2 [3] and over 10000 nM in the data set with HepG2.

For `NC1(c2ccc(-c3nc4ccn5c(=O)[nH]nc5c4cc3-c3ccccc3)cc2)CCC1` [MK-2206], the viability at 0.1 µM in the data set with MIA PaCa-2 [11] is 0.92%; in the data set on SW837 [12] it was 0.84%; with NCI-H23 [13], 0.85%; in the data set with Calu-1 [14], 0.82%; with NCI-H358 [15], 0.88%.

With `C=CC(=O)N1CCN(c2nc(=O)n(-c3c(C)ccnc3C(C)C)c3nc(-c4c(F)cccc4OCCN4CCN(CCC(=O)N[C@H](C(=O)N5C[C@H](O)C[C@H]5C(=O)NCc5ccc(-c6scnc6C)cc5)C(C)(C)C)CC4)c(F)cc23)[C@@H](C)C1`, the IC50 at 72 h in [1] is over 10000 nM. Also, the IC50 with NCI-H358 [2] was 253 nM; in the data set on ASPC1, over 10000 nM; with MIA PaCa-2 [3] it was 172 nM; in the data set with HepG2, over 10000 nM.
